Laboratory results published in patent US5098900A, “3(2H)pyridazinone, process for its preparation and anti-allergic agent containing it” (Nissan Chemical Industries Ltd., priority 1984, dated 1992).

What was measured:
SRS-A = SRS-A antagonism in guinea-pig ileum (SRS-A-induced contraction); format: cell-based; conditions: 1 min, test compound 5×10^-7 g/ml, isolated guinea-pig ileum; for inhibition at 0.5 µg/mL: Cavia porcellus
Experimental: (i) SRS-A antagonism in quinea-pig ileum
SRS-A antagonism was determined against the contraction induced by SRS-A in isolated guinea-pig ileum. The SRS-A was prepared in accordance with the method of Brocklehurst (J. Physiol., 151, 416, 1960) and Kohno and Parker (J. Immunol., 125, 446, 1980). Adult male guinea-pigs (200-250 g) were sensitized with chick egg albumin (EA), 100 mg subcutaneously and 100 mg intraperitoneally. Three weeks later the animals were killed by a blow on the head and lungs were perfused free of blood with Tyrode solution passed through the right ventricle. Isolated lungs were chopped into pieces (1 mm^3) by a scissors in Tyrode solution and filtrated with gauze, and then 1.0-1.3 g of chopped lung fragments were distributed into individual tubes (9.7 ml of Tyrode solution/tube). EA solution (0.3 ml) at a 3×10^-4 g/ml final concentration was added to the tubes and incubated for 20 min at 37° C., and then the supernatant was used for the SRS-A antagonism.
Assay for SRS-A antagonism was performed as follows: Ileum preparations isolated from male guinea-pig (300-400 g) were suspended under 0.5 g tension in organ baths (5 ml) containing Tyrode solution maintained at 30° C. and gassed with 95% O2 +5% CO2. After the repeated responses to histamine (10^-7 g/ml) was established, the contractile response to SRS-A (0.5 ml) was carried out in the presence of 10^-6 M atropine and 10^-6 M pyrilamine. Test compounds dissolved in 100% dimethyl sulfoxide were added to the organ baths (final concentration of 5×10^-7 g/ml) 1 min prior to the SRS-A addition, and SRS-A-induced contractions were compared with those of control (SRS-A-induced contraction before the treatment). The SRS-A antagonism (%) =[1.0 - (SRS-A-induced contraction in test compound)/control]×100

LTC4 = LTC4 antagonism in isolated guinea-pig trachea (LTC4-induced contraction); format: cell-based; conditions: Cavia porcellus, 5 min, test compound 10^-5 g/ml; LTC4 2×10^-8 g/ml; guinea-pig trachea; read-out: LTC4 antagonism
Experimental: (§1) (ii) LTC4 and LTD4 antagonisms in guinea-pig trachea
(§2) Antagonism for LTC4 and LTD4 were determined in isolated guinea-pig trachea prepared as spiral strip. 10 Tracheal preparations were suspended under 1 g tension in […] and they were incubated for 1 hr prior to use. Contractile responses to LTC4 (2×10^-8 g/ml) and LTD4 (2×10^-8 g/ml) were obtained after the maximal response to histamine (10^-4 M). Test compounds dissolved in 100% dimethyl sulfoxide were added to the organ baths (final concentration of 10^-5 g/ml) 5 min prior to LTC4 and LTD4 addition, and then contractile responses to LTC4 and LTD4 were compared with those of control which was obtained from a paired trachea in the absence of test compounds. LTC4 - and LTD4 -induced contractions were expressed as a percentage of the maximal response to histamine. The antagonism was determined as follows: Antagonism (%)=(1.0-% contraction in test/% contraction in control)×100

LTD4 = LTD4 antagonism in isolated guinea-pig trachea (LTD4-induced contraction); format: cell-based; conditions: Cavia porcellus, 5 min, test compound 10^-5 g/ml, LTD4 2×10^-8 g/ml
Experimental: as §1, §2

[1] = tested on: antigen-induced anaphylactic bronchoconstriction; test: Effect on anaphylactic bronchoconstriction in passively sensitized guinea-pig; format: in vivo; conditions: 2 mg/kg, i.v.
Experimental: (iii) Effect on anaphylactic bronchoconstriction in passively sensitized guinea-pig
Male guinea-pigs (350-450 g) were passively sensitized with intravenous (i.v.) injection of 0.125 ml rabbit anti-EA serum (Cappel Laboratories) 1 day preceding the experiment. […] The right jugular vein was cannulated for the administration of the all agents and trachea was cannulated to record total pulmonary resistance. Guinea-pigs were artificially ventilated by a small animal respirator (Shinano, Model SN-480-7) set at a stroke volume of 4-5 ml and a rate of 50 breaths per min. […] The increase in air overflow volume was expressed as a percentage of the maximum bronchoconstriction obtained by clamping off the trachea. Following surgical preparation, the animals were pretreated with indomethacin (1.0 mg/kg, 10 min), pyrilamine (2 mg/kg, 6 min) and propranolol (0.1 mg/kg, 5 min) prior to the EA challenge (0.1 or 10 mg/kg). All test compounds, 2 mg/kg in 3% Tween 80 or 3% PEG-400, were administered 1 min before the EA challenge. Inhibition (%) of bronchoconstriction was determined as follows Inhibition (%)=(1.0% -maximum bronchoconstriction in test/% maximum bronchoconstriction in control) ×100.
In the Table, the dose of EA was 10 mg/kg, and each compound was dissolved or suspended in 3% Tween 80.
In the Table, the dose of EA was 0.1 mg/kg.
*: PEG represents polyethylene glycol400.

ddY strain male = test: Acute toxicity test, method-(2), intraperitoneal injection; format: in vivo, ddY strain male (4 weeks old); conditions: 7 days
Experimental: The lethal ratio was determined in ddY strain male (4 weeks old) at 7 days after the intraperitoneal injection of test compounds.

[2] = EA 0.1 mg/kg, PEG (polyethylene glycol 400)

## CC(C)c1ccc(CNc2cnn(C(C)(C)C)c(=O)c2Cl)cc1 [Compound No. 5]
SRS-A
  inhibition at 0.5 µg/mL: 74%
LTC4
  inhibition at 10 µg/mL: 67%

## COc1ccc(CNc2cnn(C(C)(C)C)c(=O)c2Cl)cc1C [Compound No. 12]
SRS-A
  inhibition at 0.5 µg/mL: 73%
LTC4
  inhibition at 10 µg/mL: 67%

## CCCn1ncc(NCc2ccc(OC)c(OC)c2)c(Cl)c1=O [Compound No. 14, 4-Chloro-5-(3,4-dimethoxybenzylamino)-2-n-propyl-3-(2H)pyridazinone]
LTC4
  inhibition at 10 µg/mL: 100%
LTD4
  inhibition at 10 µg/mL: 36%
[1]; EA 10 mg/kg, 3% Tween 80
  Inhibition of anaphylactic bronchoconstriction: 28%

## COc1ccc(CNc2cnn(C(C)C)c(=O)c2Cl)cc1OC [Compound No. 15]
LTC4
  inhibition at 10 µg/mL: 100%
LTD4
  inhibition at 10 µg/mL: 80%
[1]; EA 10 mg/kg, 3% Tween 80
  Inhibition of anaphylactic bronchoconstriction: 56%

## COc1ccc(CNc2cnn(C(C)(C)C)c(=O)c2Cl)cc1OC [Compound No. 16]
SRS-A
  inhibition at 0.5 µg/mL: 55%
LTC4
  inhibition at 10 µg/mL: 96%

## CC(C)(C)n1ncc(NCc2ccc(C(=O)O)cc2)c(Cl)c1=O [Compound No. 23, 4-chloro-5-(4-carboxybenzylamino)-2-t-butyl-3(2H)pyridazinone]
SRS-A
  inhibition at 0.5 µg/mL: 18%

## CN(C)c1ccc(CNc2cnn(C(C)(C)C)c(=O)c2Cl)cc1 [Compound No. 25, 4-Chloro-5-(4-dimethylaminobenzylamino)-2-t-butyl-3(2H)-pyridazinone]
SRS-A
  SRS-A antagonism: 81%

## COc1ccc(CNc2cnn(C(C)C)c(=O)c2Cl)cc1 [Compound No. 87]
LTD4
  inhibition at 10 µg/mL: 100%
[1]; EA 0.1 mg/kg, Tween 80
  Inhibition of anaphylactic bronchoconstriction: 61%
ddY strain male; 200 mg/kg
  Lethal ratio (Death number/Experimental number): 0/2
ddY strain male; 400 mg/kg
  Lethal ratio (Death number/Experimental number): 0/2

## CCOc1cccc(CNc2cnn(C(C)C)c(=O)c2Cl)c1 [Compound No. 89]
LTC4
  inhibition at 10 µg/mL: 89%
LTD4
  inhibition at 10 µg/mL: 95%
[1]; [2]
  Inhibition of anaphylactic bronchoconstriction: 79%
ddY strain male; 200 mg/kg
  Lethal ratio (Death number/Experimental number): 0/2
ddY strain male; 400 mg/kg
  Lethal ratio (Death number/Experimental number): 0/1

## COc1ccc(CNc2cnn(C(C)C)c(=O)c2Cl)c(OC)c1 [Compound No. 97, 4-chloro-5-(2,4-dimethoxybenzylamino)-2-i-propyl-3(2H)pyridazinone]
LTC4
  inhibition at 10 µg/mL: 100%
LTD4
  inhibition at 10 µg/mL: 100%
[1]; EA 0.1 mg/kg, Tween 80
  Inhibition of anaphylactic bronchoconstriction: 32%
ddY strain male; 200 mg/kg
  Lethal ratio (Death number/Experimental number): 0/2
ddY strain male; 400 mg/kg
  Lethal ratio (Death number/Experimental number): 0/1

## CCCOc1cc(CNc2cnn(CC)c(=O)c2Cl)ccc1OC [Compound No. 105]
LTC4
  inhibition at 10 µg/mL: 100%
LTD4
  inhibition at 10 µg/mL: 100%
[1]; EA 0.1 mg/kg, Tween 80
  Inhibition of anaphylactic bronchoconstriction: 29%
ddY strain male; 100 mg/kg
  Lethal ratio (Death number/Experimental number): 0/2

## CCCOc1cc(CNc2cnn(C(C)C)c(=O)c2Cl)ccc1OC [Compound No. 106, 4-Chloro-5-(3-n-propoxy-4-methoxybenzylamino)-2-i-propyl-3(2H)pyridazinone]
LTC4
  inhibition at 10 µg/mL: 100%
LTD4
  inhibition at 10 µg/mL: 100%
[1]; EA 0.1 mg/kg, Tween 80
  Inhibition of anaphylactic bronchoconstriction: 65%
ddY strain male; 200 mg/kg
  Lethal ratio (Death number/Experimental number): 0/2
ddY strain male; 400 mg/kg
  Lethal ratio (Death number/Experimental number): 0/1

## CC(C)(C)n1ncc(NCc2ccc3c(c2)OCO3)c(Cl)c1=O [compound 18]
SRS-A
  inhibition at 0.5 µg/mL: 74%

## CSc1ccc(CNc2cnn(C(C)(C)C)c(=O)c2Cl)cc1 [compound 21]
SRS-A
  inhibition at 0.5 µg/mL: 77%
LTC4
  inhibition at 10 µg/mL: 36%

## CC(C)(C)n1ncc(NCc2ccc(N3CCOCC3)cc2)c(Cl)c1=O [compound 30]
SRS-A
  inhibition at 0.5 µg/mL: 53%
LTC4
  inhibition at 10 µg/mL: 13%

## CCN(CC)Cc1ccc(CNc2cnn(C(C)(C)C)c(=O)c2Cl)cc1 [compound 32]
SRS-A
  inhibition at 0.5 µg/mL: 18%
LTC4
  inhibition at 10 µg/mL: 20%

## CC(C)(C)n1ncc(NCc2ccc(CN3CCOCC3)cc2)c(Cl)c1=O [compound 33]
SRS-A
  inhibition at 0.5 µg/mL: 41%
LTC4
  inhibition at 10 µg/mL: 17%

## CN1CCN(Cc2ccc(CNc3cnn(C(C)(C)C)c(=O)c3Cl)cc2)CC1 [compound 34]
SRS-A
  inhibition at 0.5 µg/mL: 19%

## CCN(CC)C(=O)c1ccc(CNc2cnn(C(C)(C)C)c(=O)c2Cl)cc1 [compound 38]
SRS-A
  inhibition at 0.5 µg/mL: 31%

## CN1CCN(C(=O)c2ccc(CNc3cnn(C(C)(C)C)c(=O)c3Cl)cc2)CC1 [compound 41]
SRS-A
  inhibition at 0.5 µg/mL: 15%

## CCN1CCN(C(=O)c2ccc(CNc3cnn(C(C)(C)C)c(=O)c3Cl)cc2)CC1 [compound 42]
SRS-A
  inhibition at 0.5 µg/mL: 14%

## CCn1ncc(NCc2cccc(C)c2)c(Cl)c1=O [compound 75]
LTC4
  inhibition at 10 µg/mL: 100%
LTD4
  inhibition at 10 µg/mL: 90%
[1]; EA 0.1 mg/kg, Tween 80
  Inhibition of anaphylactic bronchoconstriction: 57%
ddY strain male; 100 mg/kg
  Lethal ratio (Death number/Experimental number): 0/2

## CCn1ncc(NCc2ccc(C)cc2C)c(Cl)c1=O [compound 79]
LTD4
  inhibition at 10 µg/mL: 100%
[1]; EA 0.1 mg/kg, Tween 80
  Inhibition of anaphylactic bronchoconstriction: 61%
ddY strain male; 200 mg/kg
  Lethal ratio (Death number/Experimental number): 0/2

## COc1ccccc1CNc1cnn(C(C)C)c(=O)c1Cl [compound 86]
LTC4
  inhibition at 10 µg/mL: 100%
LTD4
  inhibition at 10 µg/mL: 87%
[1]; EA 0.1 mg/kg, Tween 80
  Inhibition of anaphylactic bronchoconstriction: 29%
ddY strain male; 200 mg/kg
  Lethal ratio (Death number/Experimental number): 0/2
ddY strain male; 400 mg/kg
  Lethal ratio (Death number/Experimental number): 0/1

## CCOc1cccc(CNc2cnn(CC)c(=O)c2Cl)c1 [compound 88]
LTC4
  inhibition at 10 µg/mL: 81%
LTD4
  inhibition at 10 µg/mL: 95%
[1]; EA 0.1 mg/kg, Tween 80
  Inhibition of anaphylactic bronchoconstriction: 45%
ddY strain male; 200 mg/kg
  Lethal ratio (Death number/Experimental number): 0/2
ddY strain male; 400 mg/kg
  Lethal ratio (Death number/Experimental number): 0/2

## CCOc1ccc(CNc2cnn(C(C)C)c(=O)c2Cl)cc1 [compound 91]
LTD4
  inhibition at 10 µg/mL: 93%
[1]; [2]
  Inhibition of anaphylactic bronchoconstriction: 73%
ddY strain male; 100 mg/kg
  Lethal ratio (Death number/Experimental number): 0/2

## CCOc1cc(CNc2cnn(C(C)C)c(=O)c2Cl)ccc1OC [compound 103]
LTC4
  inhibition at 10 µg/mL: 100%
LTD4
  inhibition at 10 µg/mL: 100%
[1]; EA 0.1 mg/kg, Tween 80
  Inhibition of anaphylactic bronchoconstriction: 76%
ddY strain male; 200 mg/kg
  Lethal ratio (Death number/Experimental number): 0/2

## CC(C)n1ncc(NCc2ccc3c(c2)OCO3)c(Cl)c1=O [compound 119]
LTC4
  inhibition at 10 µg/mL: 100%
LTD4
  inhibition at 10 µg/mL: 100%
[1]; EA 0.1 mg/kg, Tween 80
  Inhibition of anaphylactic bronchoconstriction: 33%
